Measurements as given in patent publication US20180311237A1, “COMPOSITIONS AND METHODS FOR PREVENTING AND TREATING MUCOSITIS AND WEIGHT LOSS” (ST IP Holding AG, priority 2007, published 2018).
Read-outs that look alike come from different tables or passages of the source.

Experiments:
[1] = format: in vivo
Protocol: (§1) Ninety-six (96) female nude mice ([…]) were randomly assigned into 8 treatment groups. Each mouse was inoculated with 1×10^6 NCI-H146 (H146) small cell lung cancer cells in a volume of 0.05 mL on their lower left flank with Matrigel. Treatment began once tumors reached a volume of 75-125 mm^3.
(§2) Initiation of drug treatment was designated day 1. Mice in groups 1 and 5 received vehicle by oral gavage once daily on days 1 and 3. […] Mice in groups 5 to 8 received radiation. The radiation was given as 2 doses of 2 Gy/dose on days 2 and 4. This was accomplished by anesthetizing the mice in these groups with ketamine (100 mg/kg) and xylazine (5 mg/kg) and placing them under a lead shield such that the region of the flank with tumor exposed to the radiation. Radiation was delivered using a Philips 160 kV source at a focal distance of approximately 40 cm, and a dose rate of approximately 1.0 Gy/min. Tumours were measured on alternating days throughout the duration of the study. All mice were sacrificed on day 21 and remaining tumours were excised, measured, weighed, photographed and fixed in formalin for later analysis.
All animals were weighed every day and their survival recorded, in order to assess possible differences in animal weight among treatment groups as an indication of possible toxicity resulting from the treatments.

[2] = system: mice exposed to 10 Gy gamma radiation; conditions: for day of first death post-irradiation: 1 h before 10 Gy; for increase in survival compared with the CMC and irradiation group / reduction in animal survival compared with the 100 mg/kg group: thirty-day survival
Protocol: Animals of this group received 0.5% carboxymethyl cellulose (CMC) orally before exposure to 10 Gy gamma irradiation.
A batch of ten animals was irradiated each time at a dose rate of 1.33 Gy/min.
After irradiation, the animals were monitored daily for 30 days for the development of symptoms of radiation sickness and mortality.
Animals of this group received 0.5% carboxymethyl cellulose (CMC) orally before exposure to 10 Gy of gamma irradiation.
Animals of this group were treated with 1, 5, 10, 25, 50, 100, 150, 200 or 250 mg/kg body weight of DAPR orally once before exposure to 10 Gy of gamma radiation.
One hour after the administration of CMC or DAPR, the immobilized animals, achieved by inserting cotton plugs in the restrainer, were whole-body exposed to ^60Co gamma radiation (Theratron, Atomic Energy Agency, Canada) in a specially designed well-ventilated acrylic box. A batch of ten animals was irradiated each time at a dose rate of 1.33 Gy/min.
Initially 1, 5 and 10 mg/kg DAPR were also evaluated. […] The radioprotective efficacy of DAPR was evaluated by treating mice with 0, 25, 50, 100, 150, 200 and 250 mg/kg body weight DAPR before whole-body exposure to 10 Gy gamma radiation.

[3] = system: NCI-H146 (H146) small cell lung cancer cells
Protocol: as §1, §2
H146 human lung cancer cells were obtained from ATCC. These cells were grown in DMEM supplemented with 10% Fetal Calf Serum (FCS), penicillin and streptomycin, and 2 mM L-Glutamine. Cells were sub-cultured by removing the medium, rinsing twice with sterile calcium- and magnesium-free phosphate buffered saline (PBS) and adding 1 to 2 ml of 0.25% trypsin, 0.03% EDTA solution. The flask was allowed to sit at 37° C. until the cells detached. Cells were then sub-cultured at a ratio of 1:3.
Tumours were measured once every two days with micro-calipers, and tumour volume was calculated as (length×width)[…]. The tumour growth index (TGI) was calculated using the formula 100−([…]), where Vc is the mean volume of the tumours in the control group and Vt is the mean volume of the tumours in the test group.
Tumour volumes were calculated from the length and width measurements taken on alternating days by calculating the mean radius (r), which was the sum of length and width divided by 4, and using the formula 4/3 πr^3 to calculate the volume.

[4] = Protocol: The general condition and body weights of the mice in all groups were observed daily. The percent change in body weight in each group of mice was recorded every day by dividing the average body weight of those mice on the first day of treatment.
[5] = oral administration with cysteine (Hassan M. Ali et al., 1984); cited from earlier work
[6] = radiation plus 50 mg/kg on days 1 to 20
[7] = radiation plus 100 mg/kg on days 1 and 3
[8] = 50 mg/kg on days 1 and 3, no radiation
[9] = 50 mg/kg on days 1 to 20, no radiation
[10] = 100 mg/kg on days 1 and 3, no radiation
[11] = radiation plus 50 mg/kg on days 1 and 3
[12] = 100 mg/kg body weight/day, 2 days, + gamma radiation

SMILES: Cc1c(-c2cnccn2)ssc1=S
- average loss of starting weight by Day 21 ([1]; 50 mg/kg po on days 1 and 3, no radiation): 0.1%
- average gain of starting weight by Day 21 ([1]; 50 mg/kg po on days 1 to 20, no radiation): 0.8%
- average gain of starting weight by Day 21 ([1]; 100 mg/kg po on days 1 and 3, no radiation): 4.8%
- toxicity based on observations of survival and weight change ([1]; 50 or 100 mg/kg po, with or without radiation, 21 days): no evidence of toxicity
- average gain of starting weight by Day 21 ([1]; radiation (2 Gy days 2 and 4) plus 50 mg/kg on days 1 and 3): 0.8%
- average gain of starting weight by Day 21 [1, 6]: 1.4%
- average gain of starting weight by Day 21 [1, 7]: 5.1%
- day of first death post-irradiation ([2]; 5 mg/kg orally once): 7 days
- increase in survival compared with the CMC and irradiation group ([2]; 10 mg/kg, 10 Gy): 20%
- increase in survival compared with the CMC and irradiation group ([2]; 25 mg/kg, 10 Gy): 30%
- increase in survival compared with the CMC and irradiation group ([2]; 50 mg/kg, 10 Gy): 40%
- thirty-day survival ([2]; 100 mg/kg orally before 10 Gy): 60%
- day of first death post-irradiation ([2]; 100 mg/kg orally once): 11 days
- increase in survival compared with the non-treated irradiated control ([2]; 100 mg/kg, 10 Gy): 60%
- reduction in animal survival compared with the 100 mg/kg group ([2]; 150 mg, 10 Gy): 20%
- mortality within 10 days of irradiation ([2]; 150 mg/kg orally before 10 Gy): did not cause any mortality
- reduction in animal survival compared with the 100 mg/kg group ([2]; 200 mg, 10 Gy): 20%
- mortality within 10 days of irradiation ([2]; 200 mg/kg orally before 10 Gy): did not cause any mortality
- reduction in animal survival compared with the 100 mg/kg group ([2]; 250 mg/kg, 10 Gy): 30%
- optimum protective dose ([2]; oral, before 10 Gy): 100 mg/kg
- mean tumour volume on Day 1 [3, 8]: 72 mm^3
- mean tumour volume on Day 21 [3, 8]: 940 mm^3
- mean tumour volume on Day 1 [3, 9]: 76 mm^3
- mean tumour volume on Day 21 [3, 9]: 1130 mm^3
- mean tumour volume on Day 1 [3, 10]: 110 mm^3
- mean tumour volume on Day 21 [3, 10]: 1341 mm^3
- effect on tumour volume when given in conjunction with radiation therapy ([3]; doses and dose schedules of this study): does not have an additive effect
- mean tumour volume on Day 1 [3, 11]: 93 mm^3
- mean tumour volume on Day 21 [3, 11]: 971 mm^3
- mean tumour volume on Day 1 [3, 6]: 140 mm^3
- mean tumour volume on Day 21 [3, 6]: 1380 mm^3
- mean tumour volume on Day 1 [3, 7]: 63 mm^3
- mean tumour volume on Day 21 [3, 7]: 769 mm^3
- tumour volume relative to vehicle controls by day 21 ([3]; single agent, 50 mg/kg once daily on days 1 and 3 (P=0.030)): significant reduction in tumour volume
- Maximum body weight loss in experimental groups [4, 12]: 22.05%
- minimum body weight loss in experimental groups [4, 12]: 1.7%
- increase in body weight from initial body weight at day-30 post-irradiation ([4]; drug + 6 Gy): 17%
- increase in body weight from initial body weight at day-30 post-irradiation ([4]; drug + 8 Gy): 9.5%
- increase in body weight from initial body weight at day-30 post-irradiation ([4]; drug + 10 Gy): 13.7%
- extent and rate of bioavailability [5]: marked increase
